Here are results for 10 molecules from ChEMBL document CHEMBL1938241, “Design, synthesis, and activity evaluation of broad-spectrum small-molecule inhibitors of anti-apoptotic Bcl-2 family proteins: characteristics of broad-spectrum protein binding and its effects on anti-tumor activity” (Bioorg Med Chem Lett, 2012).

Usually Ki stands for a dissociation constant, usually derived from enzyme kinetics or from competition with a known ligand. Higher therefore signals lower affinity. The IC50 is the midpoint of a concentration-inhibition curve. Lower therefore signals higher potency.

Molecules are shown by their SMILES.

Bcl-2-like protein 1, sequence (Q07817 whole entry): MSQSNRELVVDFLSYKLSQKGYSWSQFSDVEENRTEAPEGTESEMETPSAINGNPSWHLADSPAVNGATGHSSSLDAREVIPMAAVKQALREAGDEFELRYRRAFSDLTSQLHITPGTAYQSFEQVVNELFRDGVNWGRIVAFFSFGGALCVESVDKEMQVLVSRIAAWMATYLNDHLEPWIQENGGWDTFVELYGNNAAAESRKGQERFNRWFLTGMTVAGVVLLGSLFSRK

The target of one assay is Apoptosis regulator Bcl-2 (Homo sapiens, UniProt P10415). In words: Binding affinity to Bcl-2 by competitive fluorescence polarization assay.
Apoptosis regulator Bcl-2, sequence (P10415 whole entry): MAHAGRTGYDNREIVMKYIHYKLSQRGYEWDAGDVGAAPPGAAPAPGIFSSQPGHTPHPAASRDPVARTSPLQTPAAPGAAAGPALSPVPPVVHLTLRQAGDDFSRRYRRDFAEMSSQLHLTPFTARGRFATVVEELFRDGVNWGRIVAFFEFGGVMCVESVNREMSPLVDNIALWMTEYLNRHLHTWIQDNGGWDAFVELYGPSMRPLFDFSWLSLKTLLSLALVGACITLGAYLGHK
Details: not given
In the case of `O=C(Nc1ccc(C(=O)NS(=O)(=O)c2ccc(NCCSc3ccccc3)c([N+](=O)[O-])c2)cc1)c1ccc(Br)cc1`, the Ki was found to be 0.76 µM. This lies in the sub-micromolar range.

In turn, `COc1ccc(C(=O)Nc2ccc(C(=O)NS(=O)(=O)c3ccc(NCCSc4ccccc4)c([N+](=O)[O-])c3)cc2)cc1` came in with a Ki of 0.8 µM.

As to `O=C(NS(=O)(=O)c1ccc(NCCSc2ccccc2)c([N+](=O)[O-])c1)c1ccc(NS(=O)(=O)c2ccccc2)cc1`, the affinity corresponds to a Ki of 15.2 µM.

A further assay has as its system MDA-MB-435. In words: Cytotoxicity against human MDA-MB-435 cells expressing Bcl-xL, Bcl-2 and Mcl-1 after 72 hrs by MTT assay. The conditions noted are these: MDA-MB-435, 72 h. Type of assay: functional, cell-based. A general note: Tetrazolium assays rely on reduction of a dye to a coloured formazan, in cell work by metabolically active cells.
The molecule `O=C(NS(=O)(=O)c1ccc(NCCSc2ccccc2)c([N+](=O)[O-])c1)c1ccc(NC(=O)c2ccccc2Cl)cc1` yielded an IC50 of 69.9 µM.

`O=C(Nc1ccc(C(=O)NS(=O)(=O)c2ccc(NCCSc3ccccc3)c([N+](=O)[O-])c2)cc1)c1cccc(Cl)c1`: half-maximal inhibition (IC50) required 46.7 µM.

With `O=C(Nc1ccc(C(=O)NS(=O)(=O)c2ccc(NCCSc3ccccc3)c([N+](=O)[O-])c2)cc1)c1ccc(Cl)cc1`, inhibition was half-maximal at 49.9 µM (IC50). This IC50 and that of the molecule before are within 1.5-fold of each other.

Turning to `Cc1ccccc1C(=O)Nc1ccc(C(=O)NS(=O)(=O)c2ccc(NCCSc3ccccc3)c([N+](=O)[O-])c2)cc1`, the IC50 was 47.6 µM. The IC50 values of the last two molecules are within 1.5-fold of each other.

`Cc1cccc(C(=O)Nc2ccc(C(=O)NS(=O)(=O)c3ccc(NCCSc4ccccc4)c([N+](=O)[O-])c3)cc2)c1` registered an IC50 above 169 µM.

`Cc1ccc(C(=O)Nc2ccc(C(=O)NS(=O)(=O)c3ccc(NCCSc4ccccc4)c([N+](=O)[O-])c3)cc2)cc1`: it took 53 µM to reach half-maximal inhibition (IC50).

Turning to `O=C(Nc1ccc(C(=O)NS(=O)(=O)c2ccc(NCCSc3ccccc3)c([N+](=O)[O-])c2)cc1)c1ccc(Br)cc1`, the IC50 turned out to be 39.5 µM.

Molecule `COc1ccc(C(=O)Nc2ccc(C(=O)NS(=O)(=O)c3ccc(NCCSc4ccccc4)c([N+](=O)[O-])c3)cc2)cc1` yielded an IC50 of 36.1 µM.

Regarding `O=C(NS(=O)(=O)c1ccc(NCCSc2ccccc2)c([N+](=O)[O-])c1)c1ccc(NS(=O)(=O)c2ccccc2)cc1`, the concentration for half-maximal inhibition (IC50) was above 163 µM.

In turn, `CN(C)CC[C@H](CSc1ccccc1)Nc1ccc(S(=O)(=O)NC(=O)c2ccc(N3CCN(Cc4ccccc4-c4ccc(Cl)cc4)CC3)cc2)cc1[N+](=O)[O-]` [ABT 737] had an IC50 above 123 µM.

The test system of another assay is Raji. In words: Cytotoxicity against human Raji cells expressing Bcl-xL, Bcl-2 and Mcl-1 after 72 hrs by MTT assay. It counts as functional, cell-based.
Details: not given
In turn, `O=C(NS(=O)(=O)c1ccc(NCCSc2ccccc2)c([N+](=O)[O-])c1)c1ccc(NC(=O)c2ccccc2Cl)cc1` had an IC50 of 41.2 µM. That is a double-digit micromolar value.

Turning to `O=C(Nc1ccc(C(=O)NS(=O)(=O)c2ccc(NCCSc3ccccc3)c([N+](=O)[O-])c2)cc1)c1cccc(Cl)c1`, half-maximal inhibition (IC50) was put at 37.5 µM.

Molecule `O=C(Nc1ccc(C(=O)NS(=O)(=O)c2ccc(NCCSc3ccccc3)c([N+](=O)[O-])c2)cc1)c1ccc(Cl)cc1` displayed a concentration for half-maximal inhibition (IC50) of 37.5 µM.

`Cc1ccccc1C(=O)Nc1ccc(C(=O)NS(=O)(=O)c2ccc(NCCSc3ccccc3)c([N+](=O)[O-])c2)cc1` displayed an IC50 of 38.8 µM.

The molecule `Cc1cccc(C(=O)Nc2ccc(C(=O)NS(=O)(=O)c3ccc(NCCSc4ccccc4)c([N+](=O)[O-])c3)cc2)c1` registered a half-maximal inhibitory concentration (IC50) of 92.6 µM.

As to `Cc1ccc(C(=O)Nc2ccc(C(=O)NS(=O)(=O)c3ccc(NCCSc4ccccc4)c([N+](=O)[O-])c3)cc2)cc1`, it took 38.8 µM to reach half-maximal inhibition (IC50).

In turn, `O=C(Nc1ccc(C(=O)NS(=O)(=O)c2ccc(NCCSc3ccccc3)c([N+](=O)[O-])c2)cc1)c1ccc(Br)cc1` came in with an IC50 of 35 µM.

In the case of `COc1ccc(C(=O)Nc2ccc(C(=O)NS(=O)(=O)c3ccc(NCCSc4ccccc4)c([N+](=O)[O-])c3)cc2)cc1`, the IC50 worked out at 22.9 µM.

`O=C(NS(=O)(=O)c1ccc(NCCSc2ccccc2)c([N+](=O)[O-])c1)c1ccc(NS(=O)(=O)c2ccccc2)cc1` displayed an IC50 above 163 µM.

On to `CN(C)CC[C@H](CSc1ccccc1)Nc1ccc(S(=O)(=O)NC(=O)c2ccc(N3CCN(Cc4ccccc4-c4ccc(Cl)cc4)CC3)cc2)cc1[N+](=O)[O-]` [ABT 737], for which the IC50 amounted to 93.5 µM.

Another assay has as its target Bcl-2-like protein 1 (Homo sapiens, UniProt Q07817). In words: Binding affinity to Bcl-xL by competitive fluorescence polarization assay.
Details: not given
On the technique in general: In fluorescence polarisation assays a small probe gives low polarisation when free and higher when bound to something large.
The molecule `O=C(Nc1ccc(C(=O)NS(=O)(=O)c2ccc(NCCSc3ccccc3)c([N+](=O)[O-])c2)cc1)c1ccc(Br)cc1` came in with a Ki of 1.5 µM.

In turn, `COc1ccc(C(=O)Nc2ccc(C(=O)NS(=O)(=O)c3ccc(NCCSc4ccccc4)c([N+](=O)[O-])c3)cc2)cc1` gave a Ki of 1.27 µM.

`O=C(NS(=O)(=O)c1ccc(NCCSc2ccccc2)c([N+](=O)[O-])c1)c1ccc(NS(=O)(=O)c2ccccc2)cc1` gave a Ki of 2.29 µM.

For the next assay, the system named is HCT-116. In words: Cytotoxicity against human HCT116 cells expressing Bcl-xL, Bcl-2 and Mcl-1 after 72 hrs by MTT assay. The conditions noted are these: HCT-116, 72 h. It counts as functional, cell-based.
`O=C(NS(=O)(=O)c1ccc(NCCSc2ccccc2)c([N+](=O)[O-])c1)c1ccc(NC(=O)c2ccccc2Cl)cc1` registered a half-inhibitory concentration (IC50) above 164 µM.

Take `O=C(Nc1ccc(C(=O)NS(=O)(=O)c2ccc(NCCSc3ccccc3)c([N+](=O)[O-])c2)cc1)c1cccc(Cl)c1`: the IC50 stood at 33.1 µM. In other words, the double-digit micromolar range.

Consider `O=C(Nc1ccc(C(=O)NS(=O)(=O)c2ccc(NCCSc3ccccc3)c([N+](=O)[O-])c2)cc1)c1ccc(Cl)cc1`, for which the IC50 came out at 43.4 µM.

On to `Cc1ccccc1C(=O)Nc1ccc(C(=O)NS(=O)(=O)c2ccc(NCCSc3ccccc3)c([N+](=O)[O-])c2)cc1`, for which the IC50 amounted to 161 µM.

`Cc1cccc(C(=O)Nc2ccc(C(=O)NS(=O)(=O)c3ccc(NCCSc4ccccc4)c([N+](=O)[O-])c3)cc2)c1` returned an IC50 of 169 µM.

The molecule `Cc1ccc(C(=O)Nc2ccc(C(=O)NS(=O)(=O)c3ccc(NCCSc4ccccc4)c([N+](=O)[O-])c3)cc2)cc1` gave an IC50 of 48.6 µM.

As for `O=C(Nc1ccc(C(=O)NS(=O)(=O)c2ccc(NCCSc3ccccc3)c([N+](=O)[O-])c2)cc1)c1ccc(Br)cc1`, the IC50 was found to be 10.5 µM. Against the preceding molecule, the IC50 is about 4.6-fold lower.

The molecule `COc1ccc(C(=O)Nc2ccc(C(=O)NS(=O)(=O)c3ccc(NCCSc4ccccc4)c([N+](=O)[O-])c3)cc2)cc1` registered a half-inhibitory concentration (IC50) of 14.6 µM.

Consider `O=C(NS(=O)(=O)c1ccc(NCCSc2ccccc2)c([N+](=O)[O-])c1)c1ccc(NS(=O)(=O)c2ccccc2)cc1`, for which the IC50 came out at 163 µM.

On to `CN(C)CC[C@H](CSc1ccccc1)Nc1ccc(S(=O)(=O)NC(=O)c2ccc(N3CCN(Cc4ccccc4-c4ccc(Cl)cc4)CC3)cc2)cc1[N+](=O)[O-]` [ABT 737], for which the IC50 is 47.7 µM.

The target in another assay is Induced myeloid leukemia cell differentiation protein Mcl-1 (Homo sapiens, UniProt Q07820). In words: Binding affinity to Mcl-1 by competitive fluorescence polarization assay.
Induced myeloid leukemia cell differentiation protein Mcl-1, sequence (Q07820 whole entry): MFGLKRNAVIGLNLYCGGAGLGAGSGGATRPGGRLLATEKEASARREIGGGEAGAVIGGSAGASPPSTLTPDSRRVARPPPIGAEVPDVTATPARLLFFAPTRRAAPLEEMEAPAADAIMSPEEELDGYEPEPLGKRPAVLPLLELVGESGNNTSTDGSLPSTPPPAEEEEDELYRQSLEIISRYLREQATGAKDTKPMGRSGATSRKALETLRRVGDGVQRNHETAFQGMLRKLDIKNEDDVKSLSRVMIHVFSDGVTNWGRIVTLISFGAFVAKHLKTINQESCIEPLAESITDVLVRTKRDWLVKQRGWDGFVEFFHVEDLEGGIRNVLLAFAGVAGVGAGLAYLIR
Details: not given
The molecule `O=C(Nc1ccc(C(=O)NS(=O)(=O)c2ccc(NCCSc3ccccc3)c([N+](=O)[O-])c2)cc1)c1ccc(Br)cc1` displayed a Ki of 4.1 µM. In other words, the single-digit micromolar range.

With `COc1ccc(C(=O)Nc2ccc(C(=O)NS(=O)(=O)c3ccc(NCCSc4ccccc4)c([N+](=O)[O-])c3)cc2)cc1`, the affinity, expressed as Ki, was 3.11 µM.

With `O=C(NS(=O)(=O)c1ccc(NCCSc2ccccc2)c([N+](=O)[O-])c1)c1ccc(NS(=O)(=O)c2ccccc2)cc1`, the affinity, expressed as Ki, was 7.22 µM. This Ki is about 2.3-fold higher than that of the molecule before.

For a further assay, the system named is MDA-MB-435. In words: Cytotoxicity against human MDA-MB-435 cells expressing Bcl-xL, Bcl-2 and Mcl-1 at 100 ug/ml after 72 hrs by MTT assay relative to control. It counts as functional. Particulars: MDA-MB-435, 72 h, read-out: GI.
For `CN(C)CC[C@H](CSc1ccccc1)Nc1ccc(S(=O)(=O)NC(=O)c2ccc(N3CCN(Cc4ccccc4-c4ccc(Cl)cc4)CC3)cc2)cc1[N+](=O)[O-]` [ABT 737], the inhibition of growth at 100 µg/mL stood at 55.4%.

The test system of another assay is Raji. In words: Cytotoxicity against human Raji cells expressing Bcl-xL, Bcl-2 and Mcl-1 at 100 ug/ml after 72 hrs by MTT assay relative to control. Type of assay: functional. Particulars: read-out: GI.
Regarding `CN(C)CC[C@H](CSc1ccccc1)Nc1ccc(S(=O)(=O)NC(=O)c2ccc(N3CCN(Cc4ccccc4-c4ccc(Cl)cc4)CC3)cc2)cc1[N+](=O)[O-]` [ABT 737], the inhibition of growth at 100 µg/mL was found to be 42.5%.
